Laboratory results as given in patent publication US5585381A, “Pyrimidine derivatives and pharmaceutical composition” (Kureha Chemical Industry Co., Ltd., priority 1994, dated 1996).

Experiments:
[1] = test system: kidney disease model rats; assay: Action to depress blood pressure in kidney disease model rats (tail cuff); format: in vivo, Sprague-Dawley female rats; conditions: 20 mg/kg per os; after two days; control 210 mmHg
Procedure: (§1) The compounds of the present invention and the reference substance were forcedly administered per os to kidney disease model rats, and the action to depress blood pressure was observed. The kidney disease model rats were prepared by ligature of branches of renal artery in accordance with the conventional method, that is, the left hilum renalis of Sprague-Dawley female rats was exposed under anesthesia, and one of four secondary branches of renal artery was left unligated, while the remaining three branches were ligated, respectively. After a week, the hilum renalis (artery, vein, and ureter) of the right kidney were further ligated to thereby prepare the rats whose renal function was lowered to approximately 1/8 of the normal function. Each group consisted of eight rats. The drugs to be tested (20 mg/kg) were administered to each administering group, and only water was administered to control group. After two days from the administration, the systolic blood pressure was measured by the tail cuff method using a blood pressure measuring apparatus (UR5000; Ueda).

[2] = target: T1, angiotensin II receptor subtype 1 (AT1) (Oryctolagus cuniculus, UniProt P34976); assay: Binding to angiotensin II receptor subtype 1 (AT1); design: species or system rabbits (adrenal glands); conditions: 3H-angiotensin II tracer; for IC50: room temperature, 3 hours
T1 construct: from adrenal glands in rabbits; from tissue; host or cells: rabbit adrenal glands
T1 sequence (P34976 1-359): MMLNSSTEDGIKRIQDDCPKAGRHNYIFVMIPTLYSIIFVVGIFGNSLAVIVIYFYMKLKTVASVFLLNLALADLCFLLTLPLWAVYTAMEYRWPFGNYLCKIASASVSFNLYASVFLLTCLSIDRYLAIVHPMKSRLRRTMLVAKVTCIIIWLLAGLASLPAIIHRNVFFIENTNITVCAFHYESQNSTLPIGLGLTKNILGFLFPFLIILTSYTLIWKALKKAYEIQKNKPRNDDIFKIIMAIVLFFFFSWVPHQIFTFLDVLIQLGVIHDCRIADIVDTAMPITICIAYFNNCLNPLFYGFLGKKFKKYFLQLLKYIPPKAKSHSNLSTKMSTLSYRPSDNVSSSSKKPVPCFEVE
Procedure: (§2) In this Example, the affinity to the angiotensin II receptor subtype 1 or subtype 2 was evaluated by a binding assay in accordance with the method described in Biochem. Pharmacol., 33, 4057-4062 (1984).
(§3) Specifically, the measurement of the total binding in the presence of each drug was performed as follows:
(§4) A mixture (final volume=0.25 ml) of a drug in a given concentration (the drug was dissolved in DMSO, and diluted to a double volume with a buffer attached to a drug discovery system to prepare sample for the assay; 0,025 ml), a tracer (0.025 ml), and receptors (0.2 ml) was incubated [in the case of the angiotensin II receptor subtype 1 (AT1), at room temperature for 3 hours, and in the case of the subtype 2 (AT2), at 37° C. for 1 hour]. Then, the reaction mixture was filtered with suction (GF/C filter was used in AT1, and GF/B filter was used in AT2). The filter papers after filtration with suction (the tracer bound to the receptors) were counted by a γ-well counter (ARC-500, Aloka). The non-specific bindings were measured by repeating the above method, except that a large excess amount of a displacer was added. The specific binding of the drug in the given concentration was calculated by subtracting the non-specific binding from the total binding, respectively.
(§5) In AT1 and AT2, the percentages to inhibit the bindings of radioactive ligands (tracer) to receptors by the drugs to be tested (IC50 value of concentration to show 50% inhibition, or binding inhibition % in 100 μM) were measured, using the drugs to be tested and control drugs in the given concentration.

[3] = test system: kidney disease model rats; assay: Renal function indicatory value (action to kidney diseases); format: in vivo, Sprague-Dawley female rats; conditions: 20 mg/kg/day per os, two weeks; for Creatinine clearance (CCr): control 0.20; for Creatinine (serum, Scr): control 2.0; for Urea nitrogen (BUN): control 100
Procedure: The kidney disease model rats were prepared by ligature of branches of renal artery in accordance with the conventional method, that is, the left hilum renalis of Sprague-Dawley female rats was exposed under anesthesia, and one of four secondary branches of renal artery was left unligated, while the remaining three branches were ligated, respectively. […] Each group consisted of eight rats. The drugs to be tested (20 mg/kg) were administered to each administering group, and only water was administered to control group. After two days from the administration, the systolic blood pressure was measured by the tail cuff method using a blood pressure measuring apparatus (UR5000; Ueda).
The kidney disease model rats were prepared as in Example 21. Fifteen groups (8 rats per group) were sleeked in a manner so that there were no major differences between each group in the serum creatinine value and the urea nitrogen value indicating renal function. The rats in each group were allowed to freely take up feed and water. […] To the rats in the control group, only water was forcedly administered per os every day. After two weeks, 0.2 ml of blood was collected from the carotid artery of the rat under anesthesia, and centrifuged to obtain serum. Using 25 μl of the serum, serum creatinine (Scr) was measured by a creatinine analytical instrument (Beckman). Using 10 μl of the serum, urea nitrogen (BUN) was measured by a BUN analytical instrument (Beckman). Creatinine clearance was evaluated as follows:
After serum creatinine measurement, rats were placed in urinary metabolic cages for 24 hours to collect urine. Urinary creatine concentration (Ucr) was measured by a creatinine analytical instrument, and total volume of urination (Uvol) was also measured. Creatinine clearance (CCr) was calculated by the following formula: [formula]

[4] = target: T2, angiotensin II receptor subtype 2 (AT2) (Bos taurus, UniProt G5E6F7); assay: Binding to angiotensin II receptor subtype 2 (AT2); design: species or system bovine (cerebellar cortex); conditions: 125I-Tyr4-angiotensin II tracer, 37° C., 1 hour
T2 construct: from cerebellar cortex in bovine; from tissue; host or cells: bovine cerebellar cortex
T2 sequence (G5E6F7 1-362): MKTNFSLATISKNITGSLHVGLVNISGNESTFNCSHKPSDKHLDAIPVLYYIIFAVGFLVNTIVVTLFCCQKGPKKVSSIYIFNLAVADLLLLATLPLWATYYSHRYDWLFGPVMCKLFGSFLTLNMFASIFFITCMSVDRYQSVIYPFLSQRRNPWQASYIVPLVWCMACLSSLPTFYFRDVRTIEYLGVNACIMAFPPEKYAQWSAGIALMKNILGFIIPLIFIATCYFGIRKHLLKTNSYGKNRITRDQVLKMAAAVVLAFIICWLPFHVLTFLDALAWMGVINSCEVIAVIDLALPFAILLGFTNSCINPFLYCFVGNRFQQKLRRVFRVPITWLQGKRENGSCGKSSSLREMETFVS
Procedure: as §2, §3, §4, §5
from cerebellar cortex in bovine
tracer: ^125 I-Tyr^4 -angiotensin II

[5] = test system: kidney disease model rats; assay: Action to survival time of kidney diseased animals; format: in vivo, Sprague-Dawley female rats; conditions: 20 mg/kg/day per os; observation eight weeks (upper limit); control 5.0
Procedure: as §1
The kidney disease model rats were prepared as in Example 21. Fifteen groups (8 rats per group) were prepared in a manner so that there was no major difference between the groups in the serum creatinine value and the urea nitrogen value indicating renal function. The rats in each group were allowed to freely take up feed and water. […] To the rats in the control group, only water was forcedly administered per os every day. If kidney diseases are aggravated, the rat will die of uremia. Thus, the survival time was observed as comprehensive indication of the improvement effect on the kidney diseases. The observation period was eight weeks. Thus if all rats survived, the average survival time is eight weeks and it is an upper limit.

[6] = ACE inhibitor; cited from earlier work

Compound | Blood pressure (average systolic) [1] [mmHg] | IC50 [2] [µM] | Creatinine clearance (CCr) [3] [mL/min] | Creatinine (serum, Scr) [3] [mg/dL] | Urea nitrogen (BUN) [3] [mg/dL] | inhibition at 100 µM [4] [%] | Average survival time [5] [weeks] | inhibition at 100 µM [2] [%] | blood pressure [6] | progress of renal dysfunction [6]
CCCCC(=O)Nc1c(NCc2ccc(C(=O)O)cc2)ncnc1OC [compound 2, 4-[[(6-methoxy-5-valeramido)pyrimidin-4-yl]aminomethyl]benzoic acid] | 201 | 28 | 0.35 | 1.6 | 78 | 0 | 7.5 |  |  | 
CCCCC(=O)Nc1c(NCCc2ccccc2)ncnc1NCc1ccc(OC)cc1 [compound 90, 4-[[(6-phenethylamino-5-valeramido)pyrimidin-4-yl]aminomethyl]anisole] | 208 |  | 0.29 | 1.7 | 82 | 0 | 6.9 | 20 |  | 
CCCCC(=O)Nc1c(NCCCc2ccccc2)ncnc1NCc1ccc(C(=O)O)cc1 [Compound No. 9, 4-[[(6-phenylpropylamino-5-valeramido)pyrimidin-4-yl]aminomethyl]benzoic acid] | 204 |  | 0.31 | 1.6 | 80 | 0 | 6.9 | 6 |  | 
CCCCC(=O)Nc1c(NCc2ccc(C(=O)O)cc2)ncnc1OCc1ccccc1 [Compound No. 11, 4-[[(6-benzyoloxy-5-valermido)pyrimidin-4-yl]aminomethyl]benzoic acid] | 202 | 15 | 0.35 | 1.6 | 78 |  | 7.5 |  |  | 
CCCCC(=O)Nc1c(Cl)ncnc1NCc1ccc(OC)cc1 [Compound No. 48, 4-[[(6-Chloro-5-Valeramido)pyrimidin-4-yl]aminomethyl]anisole] | 207 |  | 0.30 | 1.7 | 83 | 0 | 6.9 | 0 |  | 
CCCCC(=O)Nc1c(NCc2ccc(OC)cc2)ncnc1NCc1ccc(C(=O)O)cc1 [Compound No. 10] | 208 |  | 0.33 | 1.6 | 81 | 0 | 7.0 | 6 |  | 
CCCCC(=O)Nc1c(NCCc2ccccc2)ncnc1NCc1ccc(C(=O)O)cc1 [Compound No. 8, 4-[[(6-phenethylamino-5-valeramido)pyrimidin-4-yl]aminomethyl]benzoic acid] | 203 |  | 0.33 | 1.6 | 79 | 0 | 7.1 | 0 |  | 
C[C@H](CS)C(=O)N1CCC[C@H]1C(=O)O [captoril] |  |  |  |  |  |  |  |  | blood pressure is lowered | the progress of renal dysfunction is improved
CCOC(=O)[C@H](CCc1ccccc1)N[C@@H](C)C(=O)N1CCC[C@H]1C(=O)O [enalapril] |  |  |  |  |  |  |  |  | blood pressure is lowered | the progress of renal dysfunction is improved
CCCCC(=O)Nc1c(NCc2ccccc2)ncnc1NCc1ccc(C(=O)O)cc1 [Compound No. 7, 4-[[(6-benzylamino-5-valeramido)pyrimidin-4-yl]aminomethyl]benzoic acid] | 208 |  | 0.33 | 1.6 | 80 | 0 | 7.0 | 1 |  | 
CCCCC(=O)Nc1c(NCc2ccccc2)ncnc1NCc1ccc(OC)cc1 [Compound No. 89, 4-[[(6-benzylamino-5-valeramido)pyrimidin-4-yl]aminomethyl]anisole] | 204 |  | 0.33 | 1.6 | 80 | 0 | 7.0 | 11 |  | 
CCCCC(=O)Nc1c(NCc2ccc(C(=O)O)cc2)ncnc1N(C)Cc1ccccc1 [Compound No. 61, 4-[[(6-N-benzylmethylamino-5-valeramido)pyrimidin-4-yl]aminomethyl]benzoic acid] | 205 |  | 0.32 | 1.6 | 81 | 0 | 6.9 | 42 |  | 
